This passage reports TGI results from PubChem BioAssay (NCI).

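1) Cells in 96-well plates. 2) Compound, 48 h, 5 concentrations. 3) Linear interpolation between surrounding doses. 4) Unreached endpoint = highest concentration. At the TGI there is no net growth.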 Where a SMILES comes first, the peptide text is derived from it. [ ]: non-standard residue; d: D form. The star is where a group is joined. X28 = COC1=CC(=O)N(C(=O)[C@@H](O*)C(C)C)[C@H]1Cc1ccccc1; NMeL = CN[C@@H](CC(C)C)C(=O)O; Cbz = O=C(OCc1ccccc1)*

Some test systems named below: A549 NSCLC; HOP-92 NSCLC; IGROV1 ovarian; LOX IMVI melanoma; NCI-H226 lung; NCI-H522 lung; NCI/ADR-RES ovarian; PC-3 prostate; SF-539 CNS; SN12C renal.
What all share (test): growth of human tumour cells (NCI), 48 h

In the case of `OC(C1CCCC1=N/N=C1/CCCC1C(O)(C(F)(F)Cl)C(F)(F)Cl)(C(F)(F)Cl)C(F)(F)Cl` (stereo not given), the TGI in the test on A549 NSCLC, in the test on HOP-92 NSCLC, in the test with IGROV1 ovarian, with LOX IMVI melanoma, with NCI-H226 lung and in the test with NCI-H522 lung was greater than 10 µM in each case. Besides, the TGI in the test on NCI/ADR-RES ovarian, with PC-3 prostate, with SF-539 CNS and in the test with SN12C renal was greater than 10 µM in each case.

`Nc1ccc(S(=O)(=O)c2ccc(N=[N+]([O-])c3ccc(S(=O)(=O)c4ccc(N)cc4)cc3)cc2)cc1`: the TGI in the test on A549 NSCLC was greater than 100 µM; in the test on HOP-92 NSCLC it was 38.4 µM; in the test with IGROV1 ovarian it was greater than 100 µM; in the test with LOX IMVI melanoma it was greater than 100 µM; with NCI-H226 lung, 92.2 µM; in the test on NCI-H522 lung, greater than 74 µM. The TGI was greater than 100 µM with NCI/ADR-RES ovarian, greater than 100 µM in the test on PC-3 prostate, 58.1 µM in the test with SF-539 CNS and greater than 100 µM with SN12C renal.

As for `CC(=O)C1C(=O)C(=O)N(c2ccc([N+](=O)[O-])cc2Cl)C1=O` (stereo not given), the TGI with A549 NSCLC, in the test on HOP-92 NSCLC, in the test on IGROV1 ovarian, with LOX IMVI melanoma, in the test with NCI-H226 lung and in the test with NCI-H522 lung was greater than 100 µM in each case. Further, the TGI with NCI/ADR-RES ovarian, in the test with PC-3 prostate, with SF-539 CNS and in the test on SN12C renal was greater than 100 µM throughout.

Turning to `COC(=O)C1(Cc2ccc3c(c2)CCC3)Cc2cc3c(cc2C1=O)CCC3` (stereo not given), the TGI with A549 NSCLC is greater than 46.4 µM; in the test on HOP-92 NSCLC, 42.9 µM; with IGROV1 ovarian it was greater than 46.4 µM; with LOX IMVI melanoma, greater than 46.4 µM; in the test with NCI-H226 lung, greater than 46.4 µM; in the test with NCI-H522 lung, greater than 31.6 µM. Moreover, the TGI in the test with NCI/ADR-RES ovarian, in the test on PC-3 prostate, in the test with SF-539 CNS and with SN12C renal was greater than 46.4 µM each time.

Turning to `C/C=C/COc1cc(NC(=S)c2ccoc2C)ccc1OC`, the TGI in the test with A549 NSCLC, in the test on HOP-92 NSCLC, with IGROV1 ovarian, with LOX IMVI melanoma, in the test with NCI-H226 lung and with NCI-H522 lung was greater than 100 µM throughout. The TGI in the test with NCI/ADR-RES ovarian, in the test on PC-3 prostate, in the test with SF-539 CNS and in the test with SN12C renal was greater than 100 µM each time.

Regarding `COC(=O)Nc1nc2ccc(NS(=O)(=O)c3ccc(F)cc3)cc2[nH]1`, the TGI with A549 NSCLC was greater than 100 µM; with HOP-92 NSCLC, greater than 100 µM; in the test on IGROV1 ovarian, 9.93 µM; in the test on LOX IMVI melanoma it was greater than 100 µM; in the test on NCI-H226 lung it was greater than 100 µM; in the test on NCI-H522 lung, 7.68 µM. Further, the TGI in the test with NCI/ADR-RES ovarian was 54.2 µM; with PC-3 prostate, greater than 100 µM; in the test on SF-539 CNS, 52.9 µM; with SN12C renal, greater than 100 µM.

As for `CCOc1ccc(C(c2c(O)c3ccccc3oc2=O)c2c(O)c3ccccc3oc2=O)cc1`, the TGI with A549 NSCLC is greater than 100 µM; in the test on HOP-92 NSCLC, 65.1 µM; with IGROV1 ovarian it was greater than 100 µM; in the test with LOX IMVI melanoma it was greater than 100 µM; with NCI-H226 lung it was greater than 100 µM; in the test on NCI-H522 lung, greater than 100 µM. For the same molecule, the TGI in the test with NCI/ADR-RES ovarian is greater than 100 µM; with PC-3 prostate it was 84.3 µM; in the test with SF-539 CNS, greater than 100 µM; in the test on SN12C renal, greater than 100 µM.

On to `COC1=CC(=O)N(C(=O)[C@@H](OC(=O)[C@@H]2CCCN2C(=O)[C@@H]2CCCN2C(=O)[C@H](CC(C)C)N(C)C(=O)[C@@H](NC(=O)[C@@H](NC(=O)OCc2ccccc2)C(C)C)C(C)C)C(C)C)[C@H]1Cc1ccccc1` (Cbz-VV[NMeL]PP-X28), for which the TGI in the test with A549 NSCLC, with HOP-92 NSCLC, with IGROV1 ovarian, in the test on LOX IMVI melanoma, in the test on NCI-H226 lung and in the test on NCI-H522 lung was greater than 100 µM each time. Moreover, the TGI in the test on NCI/ADR-RES ovarian is greater than 100 µM; with PC-3 prostate, 76.8 µM; in the test with SF-539 CNS, 43.8 µM; in the test on SN12C renal, greater than 100 µM.

Take `CN(C)C(=O)CO/N=C1/C(c2c(O)[nH]c3ccccc23)=Nc2ccccc21`: the TGI in the test on A549 NSCLC, in the test on HOP-92 NSCLC, with IGROV1 ovarian, with LOX IMVI melanoma, in the test on NCI-H226 lung and in the test with NCI-H522 lung was greater than 100 µM in each case. The TGI with NCI/ADR-RES ovarian, in the test with PC-3 prostate, with SF-539 CNS and with SN12C renal was greater than 100 µM throughout.

Turning to `CC1(C)CC(=O)C2=C(C1)N(c1ccccc1)C1(O)C=CC(=O)C3=C(O)c4ccccc4C(=O)C321` (stereo not given), the TGI is greater than 100 µM in the test on A549 NSCLC; 58.5 µM in the test on HOP-92 NSCLC; 75.5 µM in the test on IGROV1 ovarian; 56.3 µM with LOX IMVI melanoma; 42.4 µM in the test with NCI-H226 lung; 45.8 µM in the test with NCI-H522 lung. Also, the TGI is greater than 100 µM in the test with NCI/ADR-RES ovarian, 63.5 µM with PC-3 prostate, 70.6 µM in the test with SF-539 CNS and greater than 100 µM in the test with SN12C renal.

With `OC1NC2CC3NC(O)C(O)NC3CC2NC1O` (stereo not given), the TGI in the test with A549 NSCLC, in the test on HOP-92 NSCLC, in the test on IGROV1 ovarian, with LOX IMVI melanoma, with NCI-H226 lung and with NCI-H522 lung was greater than 100 µM each time. The TGI with NCI/ADR-RES ovarian, in the test with PC-3 prostate, with SF-539 CNS and with SN12C renal was greater than 100 µM throughout.

On to `CC1=NN(c2cccc(Cl)c2)C2(C1)SCC(=O)N2c1nc2ccccc2s1` (stereo not given), for which the TGI was greater than 100 µM with A549 NSCLC; greater than 100 µM with HOP-92 NSCLC; greater than 100 µM in the test with IGROV1 ovarian; 41.6 µM in the test with LOX IMVI melanoma; 37.1 µM in the test with NCI-H226 lung; 75.5 µM in the test with NCI-H522 lung. In addition, the TGI is greater than 100 µM in the test on NCI/ADR-RES ovarian, 65.1 µM in the test with PC-3 prostate, 45.8 µM with SF-539 CNS and 69.1 µM in the test on SN12C renal.

Consider `CNc1nc(=O)c(C#N)c(-c2ccc(C)cc2)s1`, for which the TGI in the test with A549 NSCLC, in the test on HOP-92 NSCLC, with IGROV1 ovarian, in the test on LOX IMVI melanoma, in the test on NCI-H226 lung and in the test on NCI-H522 lung was greater than 100 µM each time. Moreover, the TGI in the test with NCI/ADR-RES ovarian, in the test with PC-3 prostate, with SF-539 CNS and with SN12C renal was greater than 100 µM each time.
